Laboratory results from publication PMC4926326, “Synthesis, Biological Activity, and Apoptotic Properties of NO-Donor/Enmein-Type ent-Kauranoid Hybrids” (International Journal of Molecular Sciences, 2016).
Values after ≈ are worked out from the molar mass of the structure shown. Read-outs that look alike come from different tables or passages of the source.

Experiments:
[1] = test system: Bacillus subtilis (CMCC 63501); experiment: Antibacterial assay, microbroth dilution MIC; format: cell-based; settings: for MIC: Bacillus subtilis, read-out: MIC B. subtilis
From the text: (§1) The antibacterial activity of NO donor/enmein-type ent-kauranoid hybrids 9a–i against the Gram-negative bacterium Escherichia coli (ATCC 25922), Gram-positive bacterium Staphylococcus aureus (ATCC 29213) and Bacillus subtilis (CMCC 63501), and the fungus Monilia albicans (ATCC 10231) was first disclosed and summarized in Table 1. […] Thus, the introduction of NO-donor substituent groups at the 14-position of enmein-type 6,7-seco-ent-kauranoid could improve antimicrobial activity against S. aureus and B. subtilis.
(§2) The minimal inhibitory concentrations (MICs) were carried out by microbroth dilution method described by the Clinical Laboratory Standards Institute. A stock solution of all the target compounds was prepared with DMSO-medium (1:2), and then graded quantities of the test compounds were diluted with medium. The specified concentration suspension of fungus and bacterium contained approximately 10^3, and 10^5 CFU/mL was added into microtitration plates. The inoculated 96-well plates were incubated at 35 °C for 18 h. MIC was defined as the lowest concentrations that prevented visible growth of the bacteria.

[2] = test system: Staphylococcus aureus (ATCC 29213); experiment: Antibacterial assay, microbroth dilution MIC; format: cell-based; settings: for MIC: Staphylococcus aureus, read-out: MIC S. aureus
From the text: as §1, §2

[3] = test system: Escherichia coli (ATCC 25922); experiment: Antibacterial assay, microbroth dilution MIC; format: cell-based; settings: for MIC: Escherichia coli, read-out: MIC E. coli
From the text: as §1, §2

[4] = test system: Bel-7402 hepatoma cell line; experiment: MTT antiproliferative assay; format: cell-based, human; settings: for IC50: Homo sapiens, read-out: IC50 Bel-7402; for SI (selectivity index): SI = IC50, L-02/IC50, Bel-7402
Method: (§3) The antiproliferative activity of 9a–i against four human cancer cell lines K562 leukemia cell line, MGC-803 gastric cancer cell line, CaEs-17 esophageal cancer cell line, and Bel-7402 hepatoma cell line, and human normal liver cells L-02 was evaluated by MTT assay (Table 2).
(§4) MTT assay was developed to monitor mammalian cell survival and proliferation in vitro [32]. CaEs-17 cells (K562, Bel-7402 and MGC-803 cells) from American Type Culture Collection (ATCC, Manassas, VA, USA) were cultivated in RPMI-1640 medium supplemented with 5% fetal bovine serum (v/v), 100 U/mL penicillin, and […] streptomycin. Cells (5 × 10^4 cell/mL) at the log phase of their growth cycle were added to each well of a 96-well plate (100 µL/well) and incubated for 24 h at 37 °C in a humidified atmosphere of 5% CO2. Then, cells were treated with or without test compounds in different concentrations. After 72 h, 5 mg/mL MTT solution (20 µL per well) was added. Cells were incubated at 37 °C. After 4 h, MTT solution was removed and DMSO was added to each well (150 µL). Ten minutes later at room temperature, the optical density (OD) values were measured at the wavelength of 490 nm on a Microplate Reader NO. 550 (BIO-RAD Instruments Inc., Hercules, CA, USA). In this experiment, 10 µg/mL of Taxol was used as the positive control and 0.1% DMSO was used as the negative reference.

K562 leukemia cell line = experiment: MTT antiproliferative assay; format: cell-based, human; settings: read-out: IC50 K562
Method: as §3, §4

[5] = test system: MGC-803 gastric cancer cell line; experiment: MTT antiproliferative assay; format: cell-based, human; settings: read-out: IC50 MGC-803
Method: as §3, §4

[6] = test system: human normal liver cells L-02; experiment: MTT assay on normal cells; format: cell-based; settings: 72 h, read-out: IC50 L-02
Method: as §3, §4

[7] = test system: Monilia albicans (ATCC 10231); experiment: Antifungal assay, microbroth dilution MIC; format: cell-based; settings: Candida albicans, read-out: MIC M. albicans
From the text: as §1, §2

[8] = test system: CaEs-17 esophageal cancer cell line; experiment: MTT antiproliferative assay; format: cell-based; settings: Homo sapiens, read-out: IC50 CaEs-17
Method: as §3, §4

[9] = Bel-7402, MTT, 72 h, mean ± SD of three experiments
[10] = Homo sapiens, K562, 72 h, MTT, 72 h, mean ± SD of three experiments
[11] = Homo sapiens, MGC-803, 72 h, MTT, 72 h, mean ± SD of three experiments
[12] = MTT, normal liver cells, mean ± SD of three experiments
[13] = CaEs17, MTT, 72 h, mean ± SD of three experiments
[14] = MTT, 72 h, mean ± SD of three experiments

Structure (SMILES) | IC50 [4, 9] [nM] | IC50 (K562 leukemia cell line; [10]) [nM] | IC50 [5, 11] [nM] | MIC ([7]; ATCC10231, 35 °C, 18 h) [µg/mL] | MIC ([1]; CMCC63501, 35 °C, 18 h) [µg/mL] | MIC ([2]; ATCC29213, 35 °C, 18 h) [µg/mL] | MIC ([3]; ATCC25922, 35 °C, 18 h) [µg/mL] | IC50 [8, 13] [nM] | melting point [°C] | SI (selectivity index) [4] | IC50 [6, 12] [nM] | other results
O=C(N[C@H](CO)[C@H](O)c1ccc([N+](=O)[O-])cc1)C(Cl)Cl [Chloromycetin, reference compound] |  |  |  |  |  |  |  |  |  |  |  | MIC B. subtilis ([1]; 35 °C, 18 h): 8 µg/mL (≈ 24.8 µM); MIC S. aureus ([2]; 35 °C, 18 h): 4 µg/mL (≈ 12.4 µM); MIC E. coli ([3]; 35 °C, 18 h): 4 µg/mL (≈ 12.4 µM)
C=C1C(=O)[C@@]23C(=O)O[C@H]4CCC(C)(C)[C@H]5[C@H](O)OC[C@@]45[C@@H]2CC[C@@H]1[C@H]3O [Compound 8] |  |  |  |  |  |  |  |  |  |  |  | IC50 ([4]; Bel-7402, 72 h): 33000 ± 2190 nM; IC50 (K562 leukemia cell line; Homo sapiens, K562, 72 h): 8110 ± 760 nM; IC50 ([5]; Homo sapiens, MGC-803, 72 h): 14200 ± 1220 nM; IC50 [6]: 24400 ± 1590 nM; MIC ([7]; ATCC10231, 18 h): > 100 µg/mL; MIC ([1]; CMCC63501, 18 h): > 100 µg/mL; MIC ([2]; ATCC29213, 18 h): > 100 µg/mL; MIC ([3]; ATCC25922, 18 h): > 100 µg/mL; IC50 ([8]; CaEs17, 72 h): 30800 ± 2090 nM
C=C1C(=O)[C@@]23C(=O)O[C@H]4CCC(C)(C)[C@H]5[C@H](O)OC[C@@]45[C@@H]2CC[C@@H]1[C@H]3OC(=O)CCC(=O)OCCOc1no[n+]([O-])c1S(=O)(=O)c1ccccc1 [Compound 9a] | 1330 ± 100 | 2470 ± 160 | 1830 ± 160 | > 100 | 64 (≈ 87.6 µM) | 16 (≈ 21.9 µM) | > 100 | 5120 ± 420 | 92 to 94 | 7.7 | 10400 ± 610 | 
C=C1C(=O)[C@@]23C(=O)O[C@H]4CCC(C)(C)[C@H]5[C@H](O)OC[C@@]45[C@@H]2CC[C@@H]1[C@H]3OC(=O)CCCC(=O)OCCOc1no[n+]([O-])c1S(=O)(=O)c1ccccc1 [Compound 9b] | 1200 ± 80 | 2310 ± 210 | 1620 ± 80 | > 100 | 2 (≈ 2.69 µM) | 4 (≈ 5.37 µM) | > 100 | 4830 ± 300 | 88 to 89 | 13.9 | 16700 ± 170 | 
C=C1C(=O)[C@@]23C(=O)O[C@H]4CCC(C)(C)[C@H]5[C@H](O)OC[C@@]45[C@@H]2CC[C@@H]1[C@H]3OC(=O)CCC(=O)OCCCOc1no[n+]([O-])c1S(=O)(=O)c1ccccc1 [Compound 9d] | 1230 ± 80 | 2150 ± 120 | 1500 ± 100 | > 100 | 2 (≈ 2.69 µM) | 4 (≈ 5.37 µM) | > 100 | 4980 ± 420 | 110 to 112 | 11.0 | 13600 ± 1310 | 
C=C1C(=O)[C@@]23C(=O)O[C@H]4CCC(C)(C)[C@H]5[C@H](O)OC[C@@]45[C@@H]2CC[C@@H]1[C@H]3OC(=O)CCCC(=O)OCCCOc1no[n+]([O-])c1S(=O)(=O)c1ccccc1 [Compound 9e] | 920 ± 50 | 1920 ± 90 | 1290 ± 120 | > 100 | 16 (≈ 21.1 µM) | 16 (≈ 21.1 µM) | > 100 | 4270 ± 350 | 82 to 84 | 18.6 | 17200 ± 770 | 
C=C1C(=O)[C@@]23C(=O)O[C@H]4CCC(C)(C)[C@H]5[C@H](O)OC[C@@]45[C@@H]2CC[C@@H]1[C@H]3OC(=O)CCC(=O)OCCCCOc1no[n+]([O-])c1S(=O)(=O)c1ccccc1 [Compound 9g] | 1270 ± 110 | 2260 ± 80 | 1430 ± 80 | > 100 | 16 (≈ 21.1 µM) | 16 (≈ 21.1 µM) | > 100 | 5130 ± 220 | 85 to 87 | 9.1 | 11600 ± 390 | 
C=C1C(=O)[C@@]23C(=O)O[C@H]4CCC(C)(C)[C@H]5[C@H](O)OC[C@@]45[C@@H]2CC[C@@H]1[C@H]3OC(=O)CCCC(=O)OCCCCOc1no[n+]([O-])c1S(=O)(=O)c1ccccc1 [Compound 9h] | 1080 ± 50 | 2110 ± 160 | 1490 ± 110 | > 100 | 16 (≈ 20.7 µM) | 16 (≈ 20.7 µM) | > 100 | 4680 ± 310 | 78 to 80 | 11.1 | 12100 ± 1080 | 
C=C1C(=O)[C@@]23C(=O)O[C@H]4CCC(C)(C)[C@H]5[C@H](O)OC[C@@]45[C@@H]2CC[C@@H]1[C@H]3OC(=O)c1ccccc1C(=O)OCCCCOc1no[n+]([O-])c1S(=O)(=O)c1ccccc1 [Compound 9i] | 780 ± 40 | 1250 | 1860 | > 100 | 2 (≈ 2.48 µM) | 16 (≈ 19.8 µM) | > 100 | 3820 ± 190 | 126 to 128 | 18.6 | 14600 ± 860 | IC50 (K562 leukemia cell line; [14]): 1860 ± 180 nM; IC50 [5, 14]: 1250 ± 100 nM

Second part, led by results:

IC50 [4, 9] [nM] | IC50 (K562 leukemia cell line; [10]) [nM] | IC50 [5, 11] [nM] | MIC ([7]; ATCC10231, 35 °C, 18 h) [µg/mL] | MIC ([1]; CMCC63501, 35 °C, 18 h) [µg/mL] | MIC ([2]; ATCC29213, 35 °C, 18 h) [µg/mL] | MIC ([3]; ATCC25922, 35 °C, 18 h) [µg/mL] | IC50 [8, 13] [nM] | melting point [°C] | Structure (SMILES) | SI (selectivity index) [4] | IC50 [6, 12] [nM] | other results
7480 ± 530 | 4760 ± 320 | 5690 ± 390 | > 100 | 32 (≈ 87.8 µM) | 32 (≈ 87.8 µM) | > 100 | 11000 ± 1020 |  | C=C1C(=O)[C@]23[C@H](O)[C@H]1CC[C@H]2[C@@]12CO[C@]3(O)[C@@H](O)[C@@H]1C(C)(C)CC[C@@H]2O [Compound 7, oridonin, reference compound] | 2.4 | 18300 ± 810 | 
830 ± 60 | 1930 ± 100 | 1340 ± 130 | > 100 | 4 (≈ 5.14 µM) | 8 (≈ 10.3 µM) | > 100 | 3760 ± 370 | 137 to 139 | C=C1C(=O)[C@@]23C(=O)O[C@H]4CCC(C)(C)[C@H]5[C@H](O)OC[C@@]45[C@@H]2CC[C@@H]1[C@H]3OC(=O)c1ccccc1C(=O)OCCOc1no[n+]([O-])c1S(=O)(=O)c1ccccc1 [Compound 9c] | 23.9 | 19870 ± 180 | 
 |  |  | 4 (≈ 13.1 µM) |  |  |  |  |  | OC(Cn1cncn1)(Cn1cncn1)c1ccc(F)cc1F [Fluconazole, reference compound] |  |  | 
1890 ± 90 | 410 ± 20 | 850 ± 60 |  |  |  |  | 430 ± 30 |  | CC(=O)O[C@H]1C(=O)[C@@]2(C)[C@H]([C@H](OC(=O)c3ccccc3)[C@]3(O)C[C@H](OC(=O)[C@H](O)[C@@H](NC(=O)c4ccccc4)c4ccccc4)C(C)=C1C3(C)C)[C@]1(OC(C)=O)CO[C@@H]1C[C@@H]2O [Taxol, reference compound] | 1.9 | 3730 ± 170 | 
